Holding throughout (assay type): cell-based
One experiment has as its system A2780. The experiment in a line: Cytotoxicity, propidium iodide assay, A2780. The conditions noted are these: Homo sapiens; Ovarian, A2780, 48 hours treatment; read-out: IC50, C3a (A2780). An outline of the steps: (§1)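 Cells seeded at 3000 cells/well, incubated 18-24 hours at 37° C./5% CO2, then exposed to a range of compound concentrations for 48 hours. After a PBS wash, 7 μg/ml propidium iodide was added, plates frozen at −70° C. for at least 24 hours, thawed and read by fluorescence; IC50 from viability relative to untreated wells.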

A further experiment deals with A549. As to the kind of experiment: Cytotoxicity, propidium iodide assay, A549. The conditions noted are these: Homo sapiens; Lung, A549, 48 hours treatment; read-out: IC50, C1a (A549). In short, it runs like this: as §1
For the next experiment, the system named is H460. As to the kind of experiment: Cytotoxicity, propidium iodide assay, H460. The conditions noted are these: Homo sapiens, NCI-H460; Lung, H460, 48 hours treatment; read-out: IC50, C1b (H460). In short, it runs like this:
as §1

In a further experiment the test system is PC3. The experiment in a line: Cytotoxicity, propidium iodide assay, PC3. The conditions noted are these: Homo sapiens, PC-3; Prostate, PC3, 48 hours treatment; read-out: IC50, C2a (PC3). In short, it runs like this:
as §1

Another experiment relates to IL-6. The experiment in a line: Human monocyte assay, LPS-stimulated IL-6 (ELISA). The conditions noted are these: human monocytes, 1 μg/ml LPS, 5 hours. An outline of the steps:
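IL-6 and TNF-α in supernatants were quantified by ELISA after 5 h of 1 μg/ml LPS (E. coli 0111:B4) challenge at 37 °C, following a 30 min compound pretreatment (vehicle 0.5% DMSO). Cells were adherent human blood monocytes, 2×10^4 per well, cultured 48 h beforehand. Nonlinear regression gave IC50; a parallel MTS plate checked toxicity.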

A further experiment deals with BT 549. As to the kind of experiment: Cytotoxicity, propidium iodide assay, BT 549. Particulars: Homo sapiens; Breast, BT 549, 48 hours treatment; read-out: IC50, C6d (BT 549). As to the method: (§2) The assay was designed as in the reference, Anticancer Drugs, 2002, 13, 1-8, the disclosure of which is incorporated by reference for the teaching of the assay.
(§3) Cells from cell lines as mentioned in the table given below were seeded at a density of 3000 cells/well in a white opaque 96-well plate. Following incubation at 37° C./5% CO2 for a period of 18-24 hours, the cells were treated with various concentrations (stock solution was prepared in DMSO and subsequent dilutions were made in media as per ATCC guidelines) of the compounds of Example 1-40 was for a period of 48 hours. At the end of treatment, the spent culture medium was discarded, the cells were washed with 1×PBS and 200 μl of 7 μg/ml propidium iodide was added to each well. The plates were frozen at −70° C. for at least 24 hours. For analysis, the plates were brought to RT, allowed to thaw and were read in PoleStar fluorimeter with the fluorescence setting. The percentage of viable cells in the non-treated set of wells was considered to be 100 and the percentage viability following treatment was calculated accordingly. IC50 values were calculated from graphs plotted using these percentages. Table 4 depicts the IC50 values of compounds of Example 1-40 in individual cell lines.
(§4) The abbreviations for the Cell Lines as used in Table 4 are: […]

The subject of a further experiment is MDA MB 468. As to the kind of experiment: Cytotoxicity, propidium iodide assay, MDA MB 468. Particulars: Homo sapiens; Breast, MDA MB 468, 48 hours treatment; read-out: IC50, C6b (MDA MB 468). Here is the method: as §2, §3, §4

pIC50: −log10 of the molar value. Where only a bound is given, the exact number is not on record here.

`CC(=O)c1ccc(S(=O)(=O)n2c(=O)n(-c3ccc(C(C)(C)C#N)cc3)c3c4cc(C)ccc4ncc32)cc1` [Example 25, 2-(4-(3-(4-Acetylphenylsulfonyl)-8-methyl-2-oxo-2,3-dihydro-1H-imidazo[4,5-c]quinolin-1-yl)phenyl)-2-methylpropanenitrile]: the negative logarithm of the IC50 (pIC50) (commonly the IC50 on a negative log10 scale, so that one unit is a factor of ten) was less than 5.52 with A2780; less than 5.52 in the experiment on A549; less than 5.52 in the experiment on H460; less than 5.52 in the experiment with PC3; less than 4.52 with IL-6; less than 5.52 in the experiment with BT 549. The negative-log IC50 (pIC50) in the experiment with MDA MB 468 is less than 5.52.

The values above are taken from patent publication US8637670B2, “Imidazo [4,5-C]quinoline derivatives and their use in the treatment of tumors and/or inflammation” (Piramal Enterprises Limited, priority 2009, dated 2014).
